Experiments:
[1] = Determination of the lethal effect (LD50, oral, mouse); settings: in vivo, per os, 48 hours observation
Method: The toxicity investigations were carried out on female NMRI mice: body weight 22 to 26 g. The animals received food and water (Altromin®) ad libitum. The substances to be tested were administered orally with the oesophageal sound as solutions of various concentration in a volume of from 10 to 20 ml/kg; 5 animals per dose were kept in Makrolon® cages, Type II. The observation duration was 48 hours. The DL50, the dose with which 50% of the animals died, was determined graphically from the dose effect curve.

albino mice [2] = experiment: Tail-Flick test (analgesia, mouse); format: in vivo; settings: po, per os, dose prolonging reaction time by 50%
Method: (§1) (b) Tail-Flick test: a thermal pain is caused at the tail root of female albino mice or rats with a focused heat ray, and the time until the tail is drawn away is recorded with a stop watch. Normally, it lies in the range of from 4 to 5 seconds. The substances tested cause delayed reaction to the heat pain, i.e. reduced thermal-pain reaction. The dose which prolongs the reaction time by 50% was determined. Literature: D'Amour, F. E., and Smith, D. L., J. Pharmacol. Exp. Ther., 72 (1941) 74.

albino mice [3] = experiment: Writhing test (acetic acid writhing, analgesia, mouse); format: in vivo; settings: po, per os; for ED50: dose reducing number of writhings by 50%; for ED40: *ED40 values, read-out: ED40 Writhing (values marked *)
Method: (c) Writhing test (acetic acid writhing): intraperitoneal injection of 0.2 ml/20 g mouse of a 0.75% strength acetic acid solution induces (in albino mice) a typical syndrome, called writhing, which proceeds over the body with dorsal flection. These writhings, which occur in the course of the first half hour after administration, are counted in the space of time of from 5 to 20 minutes after administration. The substances tested cause a reduction of the number of writhing syndromes. […] Literature: Koster, Anderson, Fed. Proc., 18 (1959) 42.

albino mice [4] = experiment: Hot plate test (analgesia, mouse); format: in vivo; settings: po, per os; for ED40: *ED40 values, read-out: ED40 Hot plate (values marked *); for ED50: dose prolonging reaction time by 50%
Method: (a) Hot plate test: female albino mice were placed on a 50° C. hot plate and the reaction time until they licked their paws was recorded with a stop watch. Normal values lie in the range of from 7 to 8 seconds. The substances tested cause delayed reaction to the heat stimulus, i.e. reduced thermal-pain sensitivity. The dose which prolongs the reaction time by 50% was determined. Literature: Eddy, N. B., and Leimbach, D., J. Pharmacol. Exp. Ther., 107 (1953) 385.

rats = experiment: Tail-Flick test (analgesia, rat); format: in vivo; settings: po, per os, dose prolonging reaction time by 50%
Method: as §1

mice = experiment: Withdrawal jumping of mice after treatment and intraperitoneal application of naloxone; format: in vivo, mouse; settings: for % of the animals reacting with "jumping": naloxone intraperitoneal, 3 and 6 given 200 mg/kg twice daily over 5 weekdays, NaCl control 20; for withdrawal jumping after naloxone (in words): 200 mg/kg twice daily over 5 weekdays, naloxone 30 mg/kg i.p. 1 hour after last dose
Method: (§2) According to Way et al. [J. Pharmacol. Exp. Ther., 167 (1969) 1] mice, which are dependent on analgesics with a morphine-like effect, react with withdrawal jumping immediately after intraperitoneal administration of naloxone. According to Saelens and co-workers [Arch. Int. Pharmacodyn. […] 2 cannot be tested accordingly because of its toxicity.
(§3) 3 and 6 were administered to mice [200 mg/kg twice daily over 5 weekdays].

[5] = Saelens et al., Arch. Int. Pharmacodyn. Ther., 190 (1971) 213; cited from earlier work
albino mice [6] = experiment: Tail-Flick test (analgesia, mouse); format: in vivo; settings: po, per os, *ED40 values, read-out: ED40 Tail-Flick (values marked *)
[7] = Withdrawal jumping of mice after treatment and intraperitoneal application of naloxone; format: in vivo, mouse; settings: mouse, in vivo, not testable for jumping, read-out: lethality in withdrawal jumping test
Method: as §2, §3

SMILES | LD50 at 48 h [1] [mg/kg] | ED50 (albino mice [2]) [mg/kg] | ED50 (albino mice [3]) [mg/kg] | ED40 (albino mice [4]) [mg/kg] | ED40 (albino mice [3]) [mg/kg] | ED50 (albino mice [4]) [mg/kg] | ED50 (rats) [mg/kg] | % of the animals reacting with "jumping" (mice) [%] | dependence development [5] | withdrawal jumping after naloxone (in words) (mice) | ED40 (albino mice [6]) [mg/kg] | mortality [7] [%]
CN1CCCC1CC(O)c1cccc(Cl)c1 (stereo not drawn) [Compound 11, 1-(3-chlorophenyl)-2-(1-methyl-2-pyrrolidinyl)-ethanol] | 330 | 65 | 125 |  |  |  |  |  |  |  |  | 
CN1CCCC1CC(O)c1cccc(O)c1 (stereo not drawn) [Compound 10, 1-(3-hydroxyphenyl)-2-(1-methyl-2-pyrrolidinyl)-ethanol] | 420 |  | 125 |  |  |  |  |  |  |  |  | 
Cc1cccc([C@H](O)C[C@H]2CCCN2C)c1 (relative stereo) [Compound 8, (R*,R*)-1-(3-methylphenyl)-2-(1-methyl-2-pyrrolidinyl)-ethanol] | 320 | 10 |  | 100 | 75 |  |  |  |  |  |  | 
CCC(=O)O[C@](Cc1ccccc1)(c1ccccc1)[C@H](C)CN(C)C [Compound 1, dextropropoxyphene, reference compound] | 140 | 25 | 30 |  |  | 15 | 25 | 100 | a dependence development is evidenced |  |  | 
COc1cccc([C@H](O)C[C@H]2CCCN2C)c1 (relative stereo) [Compound 5, (R*,R*)-1-(3-methoxyphenyl)-2-(1-methyl-2-pyrrolidinyl)ethanol] | 490 | 70 | 40 |  |  | 50 |  |  |  |  |  | 
CCCCCCN1CCCC1CC(O)c1cccc(OC)c1 (stereo not drawn) [Compound 12, 2-(1-n-hexyl-2-pyrrolidinyl)-1-(3-methoxyphenyl)-ethanol] | 180 | 70 |  |  | 75 |  |  |  |  |  |  | 
Cc1cccc([C@H](O)C[C@@H]2CCCN2C)c1 (relative stereo) [Compound 7, (R*,S*)-1-(3-methylphenyl)-2-(1-methyl-2-pyrrolidinyl)-ethanol] | 300 | 50 |  |  | 75 | 100 |  |  |  |  |  | 
COc1cccc(C(O)CC2CCCN2C)c1 (stereo not drawn) [Compound 3, 1-(3-methoxyphenyl)-2-(1-methylpyrrolidin-2-yl)-ethanol] | 600 | 25 | 15 |  |  | 30 | 7 | 20 |  | did not lead to withdrawal jumping |  | 
COc1cccc([C@H](O)C[C@@H]2CCCN2C)c1 (relative stereo) [Compound 4, (R*,S*)-1-(3-methoxyphenyl)-2-(1-methyl-2-pyrrolidinyl)-ethanol] | 420 | 60 | 50 |  |  | 100 |  |  |  |  |  | 
COc1cccc(C(O)CC2CCCN2C(C)C)c1 (stereo not drawn) [Compound 9, 2-(1-isopropyl-2-pyrrolidinyl)-1-(3-methoxyphenyl)ethanol] | 340 |  | 75 | 100 |  |  |  |  |  |  | 75 | 
Cc1cccc(C(O)CC2CCCN2C)c1 (stereo not drawn) [Compound 6, 2-(1-methylpyrrolidin-2-yl)-1-(3-tolyl)ethanol] | 420 | 35 | 75 |  |  | 100 | 10 | 10 |  | did not lead to withdrawal jumping |  | 
COc1cccc([C@@H](C[C@@H]2CCCN2C)OC(C)=O)c1 (relative stereo) [Compound 13, (R*,S*)-acetic acid-[1-(3-methoxyphenyl)-2-(1-methyl-2-pyrrolidinyl)-ethyl]-ester] | 440 |  |  |  | 75 |  |  |  |  |  |  | 
CN1CCOC(c2ccccc2)c2ccccc2C1 (stereo not drawn) [Compound 2, nefopam, reference compound] | 180 | 20 | 25 |  |  | 30 | 10 |  |  |  |  | 80

— patent US4198424A, “Substituted 1-phenyl-2-pyrrolidin-2-yl-ethanols, their synthesis, their use and their compositions” (Byk Gulden Lomberg Chemische Fabrik GmbH, priority 1977, dated 1980)
